Experimental data as given in publication PMC6177617 (British Journal of Pharmacology, 2018).
Where two headings read alike, the source gives them in different places.

Target: dopamine D2 receptor (Homo sapiens, UniProt P14416)
Assay type: binding
[1] = kPCA, room temperature, PPHT tracer, N = 2, n = 2

Chain of dopamine D2 receptor (P14416 whole entry): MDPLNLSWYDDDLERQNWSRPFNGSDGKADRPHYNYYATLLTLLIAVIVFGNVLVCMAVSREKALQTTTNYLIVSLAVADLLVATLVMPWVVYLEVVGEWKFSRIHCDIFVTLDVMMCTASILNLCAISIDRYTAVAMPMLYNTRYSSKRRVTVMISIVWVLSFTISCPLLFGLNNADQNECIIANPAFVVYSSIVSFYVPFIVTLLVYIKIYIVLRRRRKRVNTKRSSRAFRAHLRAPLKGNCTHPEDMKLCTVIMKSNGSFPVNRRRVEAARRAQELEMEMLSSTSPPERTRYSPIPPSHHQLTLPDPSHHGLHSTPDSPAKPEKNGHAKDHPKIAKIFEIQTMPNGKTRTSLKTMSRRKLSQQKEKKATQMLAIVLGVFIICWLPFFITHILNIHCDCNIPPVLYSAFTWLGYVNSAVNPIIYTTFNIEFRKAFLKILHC

Structure (SMILES) | kon [1/(M*s)] [1] | kon [1/(M*s)]
Fc1ccc(CN2CCC(Nc3ccc(C(F)(F)F)nn3)CC2)cc1F [JNJ‐37822681] | 7.33E + 05 1/(M*s) | 
FC(F)(F)c1nnc(N2CCNCC2)cc1-c1ccccc1 [JNJ‐39269646] | 4.53E + 06 1/(M*s) | 
O=C(CCCN1CCC(O)(c2ccc(Br)cc2)CC1)c1ccc(F)cc1 [Bromperidol] |  | 2.26E + 06 1/(M*s)
